Source: US20250304549A1, “HYDROXYAMIDE DERIVATIVE AND USE THEREOF” (SICHUAN HUIYU PHARMACEUTICAL CO., LTD., priority 2022, published 2025)
pIC50: −log10 of the molar value. Counter-ions that a name gives are not always drawn.

How the values were obtained:
[1] = target: pan-HDAC; assay: In vitro enzyme inhibition assay - HDAC (HDAC-Glo I/II), pan-HDAC; type: biochemical
Experimental: 2. In Vitro Enzyme Inhibition Assay—HDAC
The effect of the compound on the enzymatic activity of pan-HDAC and two isoforms (HDAC1 and HDAC8) was examined using the HDAC-Glo I/II Assay and Screening System assay to assess the level of inhibition of HDAC protease activity and selectivity in each isoform. The proteins and detection reagents were from the HDAC-Glo™ I/II Assay and Screening System (Promega). A 1 mM stock solution of the compound was prepared in DMSO and diluted in a 5-fold gradient to create a series of 8 concentrations, and a specific volume of the highest concentration was diluted 25 times with HDAC Buffer to obtain 4× working solution of the compound. […] The 384-well plate was then read on a multifunctional microplate reader, with the Luminescence channel selected to record Luminescence values (RLU). The inhibition rate was calculated using the following formula: […]
(§1) Note: ‘Negative’ refers to the group without the inhibitor; ‘Blank’ refers to the group without the enzyme.
(§2) The IC50 value was calculated by fitting the inhibition rate by GraphPad Prism software, employing log (inhibitor) vs. response-Variable Slope (four parameters) model.

[2] = system: NCI-H69 cells; assay: In vitro cell inhibition assay - NCI-H69 cell proliferation (CellTiter-Glo); type: cell-based; settings: Homo sapiens, NCI-H69, H69 small cell lung cancer cell proliferation
Experimental: 4. In Vitro Cell Inhibition Assay—NCI-H69 Cell Proliferation
The inhibitory effect of the compounds on cell proliferation was assessed by detecting the number of viable cells using the CellTiter-Glo® reagent. NCI-H69 cells in the logarithmic growth phase were collected and inoculated into transparent bottom 96-well plates at a density 1×10^3 cells per well with 100 μL medium, and incubated at 37° C., 5% CO2 overnight. The compounds were sequentially diluted in a 5-fold concentration gradient with DMSO to obtain 8 different concentrations These were then diluted with RPMI-640 (containing 20% FBS) cell culture medium to obtain the compounds working solution (2×), which was added to the cell supernatant at 100 μL per well. The incubation continued for 7 days at 37° C., 5% CO2. The plate was then removed and equilibrated to room temperature (25° C.) along with the CellTiter-Glo® mixing reagent for 10-30 minutes. After centrifugation at 1200 rpm for 5 minutes, 120 μL of the culture medium was carefully aspirated from each well, and 60 μL of CellTiter-Glo® reagent was added. The cells were thoroughly mixed with the CellTiter-Glo® mixing reagent using a microplate shaker for 2 min. and then incubated at room temperature for 10 min. The 96-well plate was subsequently placed on a multifunctional microplate reader to record the Luminescence values (RLU).
The inhibition rate was calculated using the following formula: […]
(§3) Note: ‘Negative’ refers to the group without inhibitors; ‘Blank’ refers to the group without cells.
(§4) The IC50 value was determined by fitting the inhibition rate by GraphPad Prism software.

[3] = target: LSD1 (Homo sapiens (Human), UniProt O60341); assay: In vitro enzyme inhibition assay - LSD1 (HTRF); type: biochemical
Experimental: 1. In Vitro Enzyme Inhibition Assay—LSD1
Initially, a master solution of 90 μM test compound (dissolved in DMSO) was prepared and sequentially diluted with DMSO in a 5-fold concentration gradient to yield a total of 9 concentrations of the compound working solution 1 (90×). Subsequently these 9 concentrations of working solution 1 were sequentially diluted by a 30-fold concentration gradient, i.e., 2 μL of working solution 1 was aspirated and added to 58 μL of Buffer, mixed on a vortex mixer with sufficient shaking to yield 9 concentrations of the screening test compound working solution 2 (3×). […] The mixture was incubated at room temperature for 15 minutes. […] Afterward, 2 μL of a termination solution (containing 5.4 mM 2-PCPA) was added to each well, mixed evenly, and incubated for another 15 minutes. Finally 4 μL of a pre-mixed antibody solution of Eu-anti H3K4 (PerkinElmer, TRF0404-D) and allophycocyanin (Prozyme, PJ27S) (1:1) was added to each well, mixed evenly, and incubated for 60 minutes. […] The inhibition rate was calculated through the following formula: […]
as §1, §2

[4] = system: NCI-H1417 cells; assay: In vitro cell inhibition assay - H1417 cell proliferation (CellTiter-Glo); type: cell-based; settings: Homo sapiens, NCI-H1417, H1417 small cell lung cancer cell proliferation
Experimental: 3. In Vitro Cell Inhibition Assay—H1417 Cell Proliferation
The inhibitory effect of the compounds on cell proliferation was assessed by detecting the number of viable cells using the CellTiter-Glo® reagent. […] The compounds were sequentially diluted in a 5-fold concentration gradient with DMSO to obtain 8 different concentrations o. These were diluted with BEGM (containing 10% FBS) cell culture medium to obtain the compound working solution (2×), which was added to the cell supernatant at 100 μL per well. The incubation continued for 7 days at 37° C., 5% CO2. The plate was then removed and equilibrated to room temperature (25° C.) along with the CellTiter-Glo® mixing reagent for 10-30 minutes. After centrifugation, 100 μL of the culture medium was carefully aspirated from each well, and 85 μL of CellTiter-Glo® reagent was added. The cells were thoroughly mixed with the CellTiter-Glo® mixing reagent using a microplate shaker for 2 min. and then incubated at room temperature for 10 min. The 96-well plate was subsequently placed on a multifunctional microplate reader to record the Luminescence values (RLU). • The inhibition rate was calculated using the following formula: […]
as §3, §4

Row | SMILES | IC50 [1] [nM] | pIC50 [2] | pIC50 [3] | pIC50 [4]
1 | COc1ccc(-c2cnc(N3CCC(NCc4ccc(CC(F)C(=O)NO)cc4)CC3)c(C#N)c2-c2ccc(C#N)c(F)c2)cc1O (stereo not shown) [Example 219, 3-(4-((1-(3-Cyano-4-(4-cyano-3-fluorophenyl)-5-(3-hydroxy-4-methoxyphenyl)pyridin-2-yl)piperidin-4-yl)amino)methyl) phenyl)-2-fluoro-N-hydroxypropanamide formate] | 9.28 | 6.83 | 9.68 | 8.15
2 | COc1ccc(-c2cnc(N3CCC(NCc4ccc(/C=C/C(=O)NO)c(OC)c4)CC3)c(C#N)c2-c2ccc(C#N)nc2)cc1O [Example 257, (E)-3-(4-(((1-(3′,6-Dicyano-5′-(3-hydroxy-4-methoxyphenyl)-[3,4′-bipyridin]-2′-yl)piperidin-4-yl)amino)methyl)-2-methoxyphenyl)-N-hydroxyacrylamide formate] | 0.59 | 7.95 | 8.10 | 8.12
3 | COc1ccc(-c2cnc(N3CCC(NCc4ccc(/C=C/C(=O)NO)cc4)CC3)c(C)c2-c2ccc(C#N)nc2)cc1O [Example 254, (E)-3-(4-(((1-(6-Cyano-5′-(3-hydroxy-4-methoxyphenyl)-3′-methyl-[3,4′-bipyridin]-2′-yl)piperidin-4-yl)amino)methyl)phenyl)-N-hydroxyacrylamide formate] | 0.41 | 8.33 | 7.45 | 8.24
4 | COc1ccc(-c2cnc(N3CCC(NCc4ccc(/C=C/C(=O)NO)cc4F)CC3)c(C#N)c2-c2ccc(C#N)nc2)cc1O [Example 252, (E)-3-(4-(((1-(3′,6-Dicyano-5′-(3-hydroxy-4-methoxyphenyl)-[3,4′-bipyridin]-2′-yl)piperidin-4-yl)amino)methyl)-3-fluorophenyl)-N-hydroxyacrylamide formate] | 1.03 | 8.36 | 8.49 | 8.73
5 | CC(C)(O)COc1ccc(-c2cnc(N3CCC(C)(NCc4ccc(/C=C/C(=O)NO)cc4)CC3)c(C#N)c2-c2ccc(C#N)c(F)c2)cc1O [Example 215, (E)-3-(4-(((1-(3-Cyano-4-(4-cyano-3-fluorophenyl)-5-(3-hydroxy-4-(2-hydroxy-2-methylpropoxy)phenyl)pyridin-2-yl)-4-methylpiperidin-4-yl)amino)methyl)phenyl)-N-hydroxyacrylamide formate] | 68 | 6.53 | 9.41 | 8.58
6 | COc1ccc(-c2cnc(N3CCC(C)(NCc4ccc(/C=C/C(=O)NO)nc4)CC3)c(C#N)c2-c2ccc(C#N)c(F)c2)cc1O [Example 213, (E)-3-(5-(((1-(3-Cyano-4-(4-cyano-3-fluorophenyl)-5-(3-hydroxy-4-methoxyphenyl)pyridin-2-yl)-4-methylpiperidin-4-yl)amino)methyl)pyridin-2-yl)-N-hydroxyacrylamide formate] | 19.7 | 7.12 | 8.67 | 8.14
7 | N#Cc1ccc(-c2nc(N3CCC(N)CC3)cc(OCCCCCCC(=O)NO)c2-c2ccc(OCCO)cc2)cc1F [Example 17, 7-((6-(4-Aminopiperidin-1-yl)-2-(4-cyano-3-fluorophenyl)-3-(4-(2-hydroxyethoxy)phenyl)pyridin-4-yl)oxy)-N-hydroxyheptanamide formate] | 21.6 | 5.49 | 7.62 | < 6.00
8 | COc1ccc(-c2cnc(N3CCC(CNCc4ccc(/C=C/C(=O)NO)cc4)C3)c(C#N)c2-c2ccc(C#N)c(F)c2)cc1O (stereo not shown) [Example 228, (E)-3-(4-((((1-(3-Cyano-4-(4-cyano-3-fluorophenyl)-5-(3-hydroxy-4-methoxyphenyl)pyridin-2-yl)pyrrolidin-3-yl)methyl)amino)methyl)phenyl)-N-hydroxyacrylamide hydrochloride] | 24.3 | 7.07 | 9.05 | 7.04
9 | COc1ccc(-c2cnc(N3CCC(NCc4ccc(/C=C/C(=O)NO)cc4)CC3)c(C#N)c2-c2ccc(C(N)=O)nc2)cc1O [Example 259, (E)-3′-Cyano-5′-(3-hydroxy-4-methoxyphenyl)-2′-(4-((4-(3-(hydroxyamino)-3-oxoprop-1-en-1-yl)benzyl)amino)piperidin-1-yl)-[3,4′-bipyridine]-6-carboxamide formate] | 0.25 | 8.13 | 7.09 | 8.14
10 | COc1cc(F)c(-c2cnc(N3CCC(NCc4ccc(/C=C/C(=O)NO)cc4)CC3)c(F)c2-c2ccc(C#N)nc2)cc1O [Example 270, (E)-3-(4-(((1-(6-Cyano-3′-fluoro-5′-(2-fluoro-5-hydroxy-4-methoxyphenyl)-[3,4′-bipyridin]-2′-yl)piperidin-4-yl)amino)methyl)phenyl)-N-hydroxyacrylamide formate] | 0.32 | 8.49 | 7.61 | 8.31
11 | COc1ccc(-c2ccc(N3CCC(NCc4ccc(/C=C/C(=O)NO)cc4)CC3)c(C#N)c2-c2ccc(C#N)nc2)cc1O [Example 267, (E)-3-(4-(((1-(3-Cyano-2-(6-cyanopyridin-3-yl)-3′-hydroxy-4′-methoxy-[1,l′-biphenyl]-4-yl)piperidin-4-yl)amino)methyl)phenyl)-N-hydroxyacrylamide formate] | 1.93 | 7.87 | 8.13 | 8.13
12 | COc1ccc(-c2cnc(N3CCC(NCc4ncc(/C=C/C(=O)NO)cc4F)CC3)c(C#N)c2-c2ccc(C#N)c(F)c2)cc1O [Example 230, (E)-3-(6-(((1-(3-Cyano-4-(4-cyano-3-fluorophenyl)-5-(3-hydroxy-4-methoxyphenyl)pyridin-2-yl)piperidin-4-yl)amino)methyl)-5-fluoropyridin-3-yl)-N-hydroxyacrylamide formate] | 10.3 | 7.11 | 8.84 | 8.33
13 | COC(=O)c1ccc(-c2c(-c3ccc(OC)c(O)c3)cnc(N3CCC(NCc4ccc(/C=C/C(=O)NO)cc4)CC3)c2C#N)cn1 [Example 253, Methyl (E)-3′-cyano-5′-(3-hydroxy-4-methoxyphenyl)-2′-(4-((4-(3-(hydroxyamino)-3-oxoprop-1-en-1-yl)benzyl)amino)piperidin-1-yl)-[3,4′-bipyridine]-6-carboxylate formate] | 0.3 | 8.28 | 6.47 | 7.88
